According to patent US7847064B2, “Methods and compositions for regulating gene expression in plant cells” (Donald Danforth Plant Science Center, priority 2004, dated 2010):
“Also recorded” adds a separate entry of the source.

Legend:
Format in all cases: in vivo, Arabidopsis thaliana
VGE receptor [1] = experiment: Induction of RF2a expression in transgenic Arabidopsis (Western Blot); settings: 1:8000 dilution of Intrepid 2F; plants with E:GUS, 5G35Sm:RF2a, Cs:VGE
Text: Induction of RF2a expression—RF2a expression was induced in the transgenic Arabidopsis plants described herein by application of a 1:8000 dilution of the pesticide Intrepid® 2F (Dow AgroSciences, Indianapolis, Ind.). The active ingredient in Intrepid® 2F pesticide is methoxyfenozide. […] Accordingly, the methoxyfenozide compound served as an expression-inducing ligand, which functioned to enhance expression of the RF2a-encoding sequence. Upon application of the methoxyfenozide compound, RF2a expression was induced, thereby allowing RF2a to interact with the Box II-containing E fragment, which was operably linked to the uidA sequence.
Western Blot analysis—To detect the expression of RF2a in select transgenic lines described above, either treated or untreated with Intrepid® 2F, 40 μg of protein of each sample was separated by 12% SDS-PAGE and blotted onto nitrocellulose membrane. The Arabidopsis lines analyzed by Western Blot included EGaV50, EGaV59, EGaV63, EGaV70, EGaV72, and E:GUS. Rabbit anti-RF2a antibodies were first applied to the nitrocellulose membrane, incubated, and washed. Next, anti-rabbit horseradish peroxidase-conjugated secondary antibodies were applied to the membrane, incubated, and washed. Finally, SuperSignal substrate (Pierce, Rockford, Ill.) was applied to the membrane, incubated, and washed.

VGE receptor [2] = experiment: Histochemical GUS staining of treated leaves of T1 transgenic Arabidopsis; settings: 67 T1 plants, 1:8000 dilution of Intrepid 2F on one leaf, two days, X-Gluc
Description: Analysis of GUS activity—The relative GUS activity in the transgenic Arabidopsis plants described herein was measured by histochemical analysis. In each of sixty-seven (67) T1 transgenic Arabidopsis plants carrying E:GUS, 5G35Sm:RF2a and Cs:VGE, the 1:8000 dilution of Intrepid® 2F described above was applied to one true leaf, while the other leaves in each plant remained untreated. Two-days following the application of the expression-inducing ligand, the treated leaf together with one untreated leaf from the same plant were detached and subjected to GUS staining.
More particularly, the plant leaf tissues mentioned above were submerged in stain solution containing 1 mM of X-Gluc in 100 mM sodium phosphate buffer (pH 7.0), 2 mM K3Fe(CN)6, 2 mM K4Fe(CN)6, 0.1% Triton X-100 and 20% methanol (Petruccelli et al. 2001). In order to evaluate GUS activity, several substrates are available. The most commonly used are 5-bromo-4-chloro-3-indolyl glucuronide (X-Gluc) and 4-methyl-umbelliferyl-glucuronide (MUG). […] For quantification purposes, MUG is preferred, because the umbelliferyl radical emits fluorescence under UV stimulation, thus providing better sensitivity and easy measurement by fluorometry. […]

VGE receptor [3] = experiment: Quantitative GUS activity (MUG) in T2 transgenic Arabidopsis; settings: twelve T2 lines, 1:8000 dilution of Intrepid 2F in hydroponic solution, three days
Description: Quantitative analysis of GUS activity in methoxyfenozide-treated plants was then conducted. T2 generation transgenic Arabidopsis plants from twelve T1 primary lines were selected on hygromycin selection medium. The lines are individually referred to herein as EGaV-3, EGaV-5, EGaV-17, EGaV-31, EGaV-50, EGaV-51, EGaV-56, EGaV-59, EGaV-63, EGaV-70, EGaV-72, and E:GUS. For each primary line, eighteen 14-day-old T2 plants were used. Nine plants, in three groups, were cultured in MS hydroponic solution containing a 1:8000 dilution of Intrepid 2F®. The remaining nine plants, in three groups, were left untreated and served as controls. After a three-day treatment period, the GUS activity in leaf tissue samples from each plant was quantified.
Each sample of leaf tissue was ground to a powder in liquid nitrogen. Total protein was extracted from each sample by adding 300 μl of extraction buffer. Protein concentration of each sample was quantified using a Dc Protein Assay Kit (Bio-Rad Laboratories, Hercules, Calif.). GUS activity of each sample was quantified using MUG as substrate and a fluorescence spectrometer (Molecular Devices, Sunnyvale, Calif.) (Petruccelli et al., 2001).

## COc1cccc(C(=O)NN(C(=O)c2cc(C)cc(C)c2)C(C)(C)C)c1C [methoxyfenozide]
VGE receptor [1]
  RF2a expression: enhance RF2a expression; also recorded: presence of RF2a
VGE receptor [2]
  plants with constitutive GUS expression pattern in treated leaves: approximately 70%
VGE receptor [3]
  induction of GUS expression in relation to untreated control plants, average: 2.1 fold
